Columns and labels:
[1] = tested on: MAM-treated rats; conditions: cited from earlier work
[2] = tested on: aged-impaired (AI) rats; experiment: Radial Arm Maze (RAM) behavioral task, spatial memory retention; format: in vivo, rat
Procedure: The effects of methyl 3,5-diphenylpyridazine-4-carboxylate on the in vivo spatial memory retention of aged-impaired (AI) rats were assessed in a Radial Arm Maze (RAM) behavioral task using vehicle control and four different dosage levels of methyl 3,5-diphenylpyridazine-4-carboxylate (0.1 mg/kg, 0.3 mg/kg, 1 mg/kg and 3 mg/kg, ip). RAM behavioral tasks were performed on eight AI rats. All five treatment conditions (vehicle and four dosage levels) were tested on all eight rats.
The RAM apparatus used consisted of eight equidistantly-spaced arms. An elevated maze arm (7 cm width×75 cm length) projected from each facet of an octagonal center platform (30 cm diameter, 51.5 cm height). Clear side walls on the arms were 10 cm high and were angled at 65° to form a trough. A food well (4 cm diameter, 2 cm deep) was located at the distal end of each arm. Froot Loops™ (Kellogg Company) were used as rewards. Blocks constructed of Plexiglas™ (30 cm height×12 cm width) could be positioned to prevent entry to any arm. Numerous extra maze cues surrounding the apparatus were also provided.
The AI rats were initially subjected to a pre-training test (Chappell et al. Neuropharmacology 37: 481-487, 1998). […]

[3] = biological target: T1, GABAA α5 receptor (Rattus norvegicus, UniProt P18508+P19969); experiment: GABAA α5 receptor occupancy with Ro 15-4513 tracer, hippocampus vs cerebellum; format: in vivo, Long Evans rats; conditions: for Ro 15-4513 binding in hippocampus / cerebellum levels (binding) of Ro 15-4513: 0.01-10 mg/kg
T1 construct: from tissue
T1 sequence (P19969 32-464 limits assumed): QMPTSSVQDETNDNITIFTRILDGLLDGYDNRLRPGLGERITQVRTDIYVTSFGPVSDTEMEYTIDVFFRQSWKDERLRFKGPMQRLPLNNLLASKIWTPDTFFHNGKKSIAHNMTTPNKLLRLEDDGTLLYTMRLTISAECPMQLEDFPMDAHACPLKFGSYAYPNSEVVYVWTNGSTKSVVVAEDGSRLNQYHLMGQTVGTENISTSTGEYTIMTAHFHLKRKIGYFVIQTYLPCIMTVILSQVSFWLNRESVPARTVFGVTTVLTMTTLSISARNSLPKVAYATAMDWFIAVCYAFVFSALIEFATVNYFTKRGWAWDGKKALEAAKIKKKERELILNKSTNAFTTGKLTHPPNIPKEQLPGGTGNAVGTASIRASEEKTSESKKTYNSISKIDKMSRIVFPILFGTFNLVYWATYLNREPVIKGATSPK
T1 sequence (P18508 39-466): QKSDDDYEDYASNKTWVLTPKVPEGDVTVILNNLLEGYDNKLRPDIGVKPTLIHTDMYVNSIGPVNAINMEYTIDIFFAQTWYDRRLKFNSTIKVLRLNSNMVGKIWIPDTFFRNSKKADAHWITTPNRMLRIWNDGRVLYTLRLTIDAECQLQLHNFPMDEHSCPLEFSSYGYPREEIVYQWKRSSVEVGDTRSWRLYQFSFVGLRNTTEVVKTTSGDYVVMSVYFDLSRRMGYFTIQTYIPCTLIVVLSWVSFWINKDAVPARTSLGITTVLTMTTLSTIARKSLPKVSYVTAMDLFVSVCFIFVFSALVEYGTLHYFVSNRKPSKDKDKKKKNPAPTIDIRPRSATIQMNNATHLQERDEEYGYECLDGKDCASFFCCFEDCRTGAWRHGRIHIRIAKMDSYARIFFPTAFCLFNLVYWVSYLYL
Procedure: Food and water were available ad libitum.
The (100 μl) supernatant solution was diluted by […] of sterile water (pH 6.5).

[4] = i.v., listed as Methyl 3,5-diphenylpyridazine-4-carboxylate

SMILES	increased locomotor response to amphetamine in MAM-treated rats ([1]; rat, in vivo)	number of spontaneously active DA neurons in the ventral tegmental area (VTA) of MAM rats ([1]; systemic or infused into the ventral HPC)	memory performance relative to vehicle control ([2]; 3 mg/kg, four-hour delay, p=0.004 or p=0.018)	Ro 15-4513 binding in hippocampus ([3]; i.v.)	cerebellum levels (binding) of Ro 15-4513 ([3]; i.v.)	memory performance relative to vehicle control ([2]; 3 mg/kg ip, two-hour delay, t(7)=4.233, p=0.004)	Ro 15-4513 binding in hippocampus [3, 4]	cerebellum levels (binding) of Ro 15-4513 [3, 4]	RO required for cognitive efficacy in this model ([3]; from exposure in aged rats at 3 mg/kg, i.p.)	GABAA α5 receptors occupied at exposures behaviorally active in aged-impaired rats ([3]; hippocampus exposure-occupancy relationship (FIG. 4))	ED50 of receptor occupancy, ratio method ([3]; i.v.) [mg/kg]
C#Cc1ccc2c(c1)C(c1ccccc1F)=N[C@H](C)c1c(C(=O)OCC)ncn1-2 [SH-053-2′F-R—CH3]	reduced	to levels observed in saline-treated rats									
CCOC(=O)c1ncn2c1Cn1c(C)nnc1-c1cc(OC)ccc1-2 [ethyl 3-methoxy-7-methyl-9H-benzo[f]imidazo[1,5-a][1,2,4]tri]			significantly improved memory performance	reduced	without affecting						
COC(=O)c1c(-c2ccccc2)cnnc1-c1ccccc1 [methyl 3,5-diphenylpyridazine-4-carboxylate]				blocked	did not affect	significantly improved memory performance	dose-dependently reduced	without affecting	30-40%	about 32%	1.8

Source: US20180170941A1 (priority 2016, published 2018)
